Where “and” joins values, the source holds several entries; their conditions need not be identical. Equal values may be shown once. Read-outs that look alike come from different tables or passages of the source.
Legend:
IL-6 and TNF-α = experiment: Sow feeding trial, Postpartum Dysgalactia Syndrome, inflammation markers; type: in vivo; conditions: sows, relative to untreated animals at allocation day
Procedure: Principle: Evaluation of the antiinflammatory activity of Larch sawdust in order to reduce the prevalence of Postpartum Dysgalactia Syndrome in sows under field conditions. IL-6 and TNF-α were analyzed as markers of inflammatory stress.
Materials and Methods: Sows with no clinical signs of disease were used from a farm of approximately 900 sows under production. Trial animals were sows of the same genotype (Dalland hybrids), chosen in terms of achieving homogenity regarding parity, bodyweight, previous production parameters (litter size, litter average bodyweight etc.) and previous health status. The farm was selected due to previous history of Post Partum Dysgalactia Syndrome occurrence. The sows were randomly allocated to a control group (n=5), a positive control group (n=5) and a larch sawdust (n=5) group. The whole trial period was 35 days beginning at 7 days prior to farrow until the day of weaning.
1% by weight of larch sawdust was added as an anti-inflammatory ingredient to sow feed (dry period and lactation feed). […] The raw materials were well accepted at an inclusion level of 1% by weight in the diet as it was shown by previous trials performed.
Thus, during the whole trial period the animals were fed as follows:
1. Control group (99% Basic diet and 1% Corn starch) 2. Larch group (99% Basic diet and 1% Larch) 3. Positive control group (99% Basic diet and 1% Corn starch)
Moreover, the animals of the positive control group were injected a single 2 ml dosage of an antiinflammatory drug (meloxicam) at the day of parturition, while the animals of all the other groups were injected with a single 2 ml dose of normal saline at the same day.
Blood samples were collected from all trial animals at allocation day (7 days before farrowing day) and at 24 and 72 hours post farrowing from all sows for inflammation markers evaluation (serum TNF-α, plasma IL-6). Additionally the milk production index for all sows was calculated, while production and health parameters of sows and their litters were recorded.
The cytokines results were expressed as n-fold increase of cytokine expression in relation to untreated animals at allocation day.

[1] = tested on: 5-LOX mediated LT biosynthesis; experiment: LT biosynthesis inhibition assay in activated neutrophile granulocytes, LTB4 EIA; type: cell-based, human
Procedure: 1.) LT biosynthesis inhibition assay
The assay was performed as described in [Michael Adams, Olaf Kunert, Ernst Haslinger, Rudolf Bauer: Inhibition of Leukotriene Biosynthesis by Quinolone Alkaloids from the Fruits of Evodia Rutaecarpa; Planta med. 2004 (70): 904-908] with some modifications.
Principle: Activated neutrophile granulocytes with 5-LOX activity are incubated with a defined concentration of test sample and arachidonic acid. After stopping the enzymatic reaction by addition of formic acid and centrifugation to remove cellular fragments, the produced LTB4 is quantified in the supernatant by means of an LTB4 EIA kit.
Isolation of human neutrophile granulocytes: 30 ml of venous human blood from healthy voluntary donors are collected with a Vacutainer™ (BD, Plymouth, UK) system containing a 0.219 M pre-analytical citric acid solution. The blood is immediately transferred to a falcon tube containing 20 ml of sedimentation solution (1% NaCl, 6% dextran T-500) and left to separate for 60 min at 4° C. While most of the dense erythrocytes sink into the dextran layer, the lighter blood fractions remain in the upper layer which is then removed and centrifuged at 1600 rpm (4° C., 10 min) to concentrate the leukocytes. The plasma supernatant is discarded, the pellet is resuspended in 10 ml of a wash buffer (10% CaCl2.2H2O p.a.; 0.1% anhydrous d-glucose; 0.2% MgCl2.6H2O; 0.04% KCl; 1.75% TRIS p.a.; with the pH adjusted to 7.6 with 1N HCl). After centrifugation at 1400 rpm (4° C., 10 min) and removal of the supernatant the resulting pellet is resuspended in 10 ml of a hypotonic lysis buffer (0.17% NH4Cl; 0.2% TRIS; pH 7.2) and gently shaken for 5 min at room temperature to destroy remaining erythrocytes. The suspension is submitted to another centrifugation at 1400 rpm (4° C., 5 min). The pellet is resuspended in 10 ml of wash buffer and then centrifuged at 1400 rpm (4° C., 15 min). The resulting pellet which now mainly contains neutrophile granulocytes is resuspended in 2 ml of TRIS buffer (1.75% TRIS p.a., 0.9% NaCl, pH 7.4), tested for vitality, quantified and then diluted to a cell concentration of 4500 cells/ml with TRIS buffer.
Cell vitality test: 50 μl of cell suspension and 10 μl of trypan blue solution (0.4%) (Sigma Chemical Co. Steinheim, Germany) are mixed on a glass object carrier and examined with a light microscope at 1000 fold magnification. Dead cells appear larger and darker due to absorption of trypan blue. The vitality of the cells must be >95%.
Determination of cell concentration: 10 μl of granulocyte cell suspension are dyed using 990 μl aqueous TURKS solution (Merck) and quantified in a “Neubauer” chamber (Assistent, Germany).
Sample preparation: samples are dissolved in an appropriate amount of ethanol p.a. to be added to the test mixture resulting in screening concentrations of 50 μM for pure compounds and 20 μg/ml for crude. The commercially available 5-LOX inhibitor zileuton (Sequoia Research Products Ltd., UK) is used as a positive control at a concentration of 10 μM representing its IC50 in this test system.
Incubation procedure: The incubation mixture in a 96-well flat bottom microtitre plate (Bibby Sterilin, Staffordshire, UK) consists of 265 μl leukocyte suspension, with 75.5 μM CaCl2, 0.152 μM […] (ETYA) as an inhibitor of the 12-LOX pathway, 0.642 μM Ca ionophore A23187 and 4.43 μM arachidonic acid, the substrate of the 5-LOX pathway, along with 5 μl of each test solution or 5 μl of EtOH p.a. in control wells. After incubation for 10 min at 37° C. in darkness, the reaction is stopped by addition of 20 μl of 10% formic acid. The microtitre plate is centrifuged for 15 min at 1400 rpm to separate free LTB4 from cellular particles before the supernatant is diluted 40 fold in EIA buffer and applied to a competitive LTB4 EIA kit (Assay Designs Inc.).
LTB4 EIA: The plate is incubated for 2 hours at room temperature on an orbital shaker. […]

5-lipoxygenase (5-LOX) = conditions: read-out: 5-LOX inhibitory activity IC50, cited from earlier work

Compound: Cc1cnc(NC(=O)C2=C(O)c3ccccc3S(=O)(=O)N2C)s1 [Positive controls, meloxicam]
- Relative expression of IL6 (IL-6 and TNF-α; 24 hours PP): 1.86 ± 0.92 n fold
- Relative expression of TNFα (IL-6 and TNF-α; 24 hours PP): 0.87 ± 0.29 n fold
- Relative expression of IL6 (IL-6 and TNF-α; 72 hours PP): 1.08 ± 0.78 n fold
- Relative expression of TNFα (IL-6 and TNF-α; 72 hours PP): 0.98 ± 0.77 n fold

Compound: CC(c1cc2ccccc2s1)N(O)C(N)=O (centres unmarked) [Zileuton, reference compound]
- IC50 [1]: 5 µM
- IC50 ([1]; Homo sapiens): 10 µM and 1.2 µg/mL

Compound: CC(C)C1=CC2=CC[C@@H]3[C@](C)(CCC[C@@]3(C)C(=O)O)[C@H]2CC1 [abietic acid]
- IC50 (5-lipoxygenase (5-LOX); Ulusu et al. 2002, isolated from cones of Abies nordmanniana ssp. equitraojani): 29.5 ± 1.29 µM
- IC50 (5-lipoxygenase (5-LOX); known from the art): ~30 µM
